# According to ChEMBL document CHEMBL1152890, “Synthesis and evaluation of a novel series of heterocyclic oleanolic acid derivatives with anti-osteoclast formation activity” (Eur J Med Chem, 2009):
# Experiments:
# [1] = Antiosteoclast activity in ICR mouse osteoblast like cells co-cultured with bone marrow cells assessed as effect on 1-alpha,25(OH)2D3-induced TRAP-positive osteoclast like multinucleated cell formation at 20 uM after 6 days medium replaced every 2 days relative to control; assay type: functional
# [2] = Antiosteoclast activity in ICR mouse osteoblast like cells co-cultured with bone marrow cells assessed as effect on 1-alpha,25(OH)2D3-induced TRAP-positive osteoclast like multinucleated cell formation at 2 uM after 6 days medium replaced every 2 days relative to control; assay type: functional
Compound,Activity [1],Activity [2]
COC(=O)[C@@H](NC(=O)[C@]12CCC(C)(C)C[C@H]1C1=CC[C@@H]3[C@@]4(C)Cc5c([nH]c6ccccc56)C(C)(C)[C@@H]4CC[C@@]3(C)[C@]1(C)CC2)C(C)C,99%,–
COC(=O)[C@H](C)NC(=O)[C@]12CCC(C)(C)C[C@H]1C1=CC[C@@H]3[C@@]4(C)Cc5c([nH]c6ccc(Cl)cc56)C(C)(C)[C@@H]4CC[C@@]3(C)[C@]1(C)CC2,10.1%,79.9%
CC1(C)CC[C@]2(C(=O)N[C@@H](Cc3ccccc3)C(=O)O)CC[C@]3(C)C(=CC[C@@H]4[C@@]5(C)Cc6nccnc6C(C)(C)[C@@H]5CC[C@]43C)[C@@H]2C1,89.4%,–
CC1(C)CC[C@]2(C(=O)N[C@@H](Cc3ccccc3)C(=O)O)CC[C@]3(C)C(=CC[C@@H]4[C@@]5(C)Cc6c([nH]c7ccccc67)C(C)(C)[C@@H]5CC[C@]43C)[C@@H]2C1,58%,–
CC1(C)CC[C@]2(C(=O)NCC(=O)O)CC[C@]3(C)C(=CC[C@@H]4[C@@]5(C)Cc6nc7ccccc7nc6C(C)(C)[C@@H]5CC[C@]43C)[C@@H]2C1,91.9%,–
CC1(C)CC[C@]2(C(=O)N[C@@H](Cc3ccccc3)C(=O)O)CC[C@]3(C)C(=CC[C@@H]4[C@@]5(C)CCC(=O)C(C)(C)[C@@H]5CC[C@]43C)[C@@H]2C1,80.7%,–
CC1(C)CC[C@]2(C(=O)NCC(=O)O)CC[C@]3(C)C(=CC[C@@H]4[C@@]5(C)Cc6c([nH]c7ccccc67)C(C)(C)[C@@H]5CC[C@]43C)[C@@H]2C1,9%,95.2%
CC(C)[C@H](NC(=O)[C@]12CCC(C)(C)C[C@H]1C1=CC[C@@H]3[C@@]4(C)Cc5c([nH]c6ccccc56)C(C)(C)[C@@H]4CC[C@@]3(C)[C@]1(C)CC2)C(=O)O,6.1%,70.8%
COC(=O)[C@@H](NC(=O)[C@]12CCC(C)(C)C[C@H]1C1=CC[C@@H]3[C@@]4(C)CCC(=O)C(C)(C)[C@@H]4CC[C@@]3(C)[C@]1(C)CC2)C(C)C,100.6%,–
CC1(C)CC[C@]2(C(=O)NCC(=O)O)CC[C@]3(C)C(=CC[C@@H]4[C@@]5(C)Cc6nccnc6C(C)(C)[C@@H]5CC[C@]43C)[C@@H]2C1,85.1%,–
COC(=O)CNC(=O)[C@]12CCC(C)(C)C[C@H]1C1=CC[C@@H]3[C@@]4(C)Cc5c([nH]c6ccc(Cl)cc56)C(C)(C)[C@@H]4CC[C@@]3(C)[C@]1(C)CC2,0%,66.6%
C[C@H](NC(=O)[C@]12CCC(C)(C)C[C@H]1C1=CC[C@@H]3[C@@]4(C)Cc5nccnc5C(C)(C)[C@@H]4CC[C@@]3(C)[C@]1(C)CC2)C(=O)O,76.5%,–
CC[C@H](C)[C@H](NC(=O)[C@]12CCC(C)(C)C[C@H]1C1=CC[C@@H]3[C@@]4(C)Cc5c([nH]c6ccccc56)C(C)(C)[C@@H]4CC[C@@]3(C)[C@]1(C)CC2)C(=O)O,84.4%,–
COC(=O)[C@H](C)NC(=O)[C@]12CCC(C)(C)C[C@H]1C1=CC[C@@H]3[C@@]4(C)CCC(=O)C(C)(C)[C@@H]4CC[C@@]3(C)[C@]1(C)CC2,29.3%,68.7%
C[C@H](NC(=O)[C@]12CCC(C)(C)C[C@H]1C1=CC[C@@H]3[C@@]4(C)Cc5c([nH]c6ccccc56)C(C)(C)[C@@H]4CC[C@@]3(C)[C@]1(C)CC2)C(=O)O,21%,90.2%
C[C@H](NC(=O)[C@]12CCC(C)(C)C[C@H]1C1=CC[C@@H]3[C@@]4(C)CCC(=O)C(C)(C)[C@@H]4CC[C@@]3(C)[C@]1(C)CC2)C(=O)O,100%,–

Compound,Activity [1],Activity [2]
COC(=O)[C@H](CC(C)C)NC(=O)[C@]12CCC(C)(C)C[C@H]1C1=CC[C@@H]3[C@@]4(C)Cc5c([nH]c6ccccc56)C(C)(C)[C@@H]4CC[C@@]3(C)[C@]1(C)CC2,96.8%,–
CC(C)C[C@H](NC(=O)[C@]12CCC(C)(C)C[C@H]1C1=CC[C@@H]3[C@@]4(C)CCC(=O)C(C)(C)[C@@H]4CC[C@@]3(C)[C@]1(C)CC2)C(=O)O,100.6%,–
CC1(C)CC[C@]2(C(=O)O)CC[C@]3(C)C(=CC[C@@H]4[C@@]5(C)CCC(=O)C(C)(C)[C@@H]5CC[C@]43C)[C@@H]2C1 [OLEANONIC ACID],1.4%,79.2%
CC[C@H](C)[C@H](NC(=O)[C@]12CCC(C)(C)C[C@H]1C1=CC[C@@H]3[C@@]4(C)CCC(=O)C(C)(C)[C@@H]4CC[C@@]3(C)[C@]1(C)CC2)C(=O)OC,1.4%,94%
CC(C)[C@H](NC(=O)[C@]12CCC(C)(C)C[C@H]1C1=CC[C@@H]3[C@@]4(C)Cc5nccnc5C(C)(C)[C@@H]4CC[C@@]3(C)[C@]1(C)CC2)C(=O)O,83.5%,–
COC(=O)[C@@H](NC(=O)[C@]12CCC(C)(C)C[C@H]1C1=CC[C@@H]3[C@@]4(C)Cc5c([nH]c6ccc(Cl)cc56)C(C)(C)[C@@H]4CC[C@@]3(C)[C@]1(C)CC2)C(C)C,21.1%,90.8%
CC[C@H](C)[C@H](NC(=O)[C@]12CCC(C)(C)C[C@H]1C1=CC[C@@H]3[C@@]4(C)Cc5nc6ccccc6nc5C(C)(C)[C@@H]4CC[C@@]3(C)[C@]1(C)CC2)C(=O)OC,78.5%,–
CC(C)[C@H](NC(=O)[C@]12CCC(C)(C)C[C@H]1C1=CC[C@@H]3[C@@]4(C)CCC(=O)C(C)(C)[C@@H]4CC[C@@]3(C)[C@]1(C)CC2)C(=O)O,99.8%,–
COC(=O)[C@H](CC(C)C)NC(=O)[C@]12CCC(C)(C)C[C@H]1C1=CC[C@@H]3[C@@]4(C)Cc5c([nH]c6ccc(Cl)cc56)C(C)(C)[C@@H]4CC[C@@]3(C)[C@]1(C)CC2,86%,–
CC1(C)CC[C@]2(C(=O)O)CC[C@]3(C)C(=CC[C@@H]4[C@@]5(C)Cc6c([nH]c7ccccc67)C(C)(C)[C@@H]5CC[C@]43C)[C@@H]2C1,51.1%,94.6%
CC[C@H](C)[C@H](NC(=O)[C@]12CCC(C)(C)C[C@H]1C1=CC[C@@H]3[C@@]4(C)CCC(=O)C(C)(C)[C@@H]4CC[C@@]3(C)[C@]1(C)CC2)C(=O)O,100.3%,–
CC[C@H](C)[C@H](NC(=O)[C@]12CCC(C)(C)C[C@H]1C1=CC[C@@H]3[C@@]4(C)Cc5c([nH]c6ccccc56)C(C)(C)[C@@H]4CC[C@@]3(C)[C@]1(C)CC2)C(=O)OC,98.4%,–
CC1(C)CC[C@]2(C(=O)NCC(=O)O)CC[C@]3(C)C(=CC[C@@H]4[C@@]5(C)CCC(=O)C(C)(C)[C@@H]5CC[C@]43C)[C@@H]2C1,103%,–
CC1(C)CC[C@]2(C(=O)N[C@@H](Cc3ccccc3)C(=O)O)CC[C@]3(C)C(=CC[C@@H]4[C@@]5(C)Cc6nc7ccccc7nc6C(C)(C)[C@@H]5CC[C@]43C)[C@@H]2C1,75.4%,–
CC[C@H](C)[C@H](NC(=O)[C@]12CCC(C)(C)C[C@H]1C1=CC[C@@H]3[C@@]4(C)Cc5c([nH]c6ccc(Cl)cc56)C(C)(C)[C@@H]4CC[C@@]3(C)[C@]1(C)CC2)C(=O)OC,82.4%,–
C[C@H](NC(=O)[C@]12CCC(C)(C)C[C@H]1C1=CC[C@@H]3[C@@]4(C)Cc5nc6ccccc6nc5C(C)(C)[C@@H]4CC[C@@]3(C)[C@]1(C)CC2)C(=O)O,96.5%,–
